{"source": "paper PMC3468400", "about": "“Pharmacokinetic profiles of artesunate following multiple intravenous doses of 2, 4, and 8 mg/kg in healthy volunteers: Phase 1b study” (Malaria Journal, 2012)", "origin": "cited, not measured here", "system": "parasitaemia", "conditions": "cited from earlier work", "data": [{"smiles": "C[C@H]1[C@H](OC(=O)CCC(=O)O)O[C@@H]2O[C@@]3(C)CC[C@H]4[C@H](C)CC[C@@H]1[C@@]24OO3", "note": "[AS, 4-(10’dihydro-artemisinin-oxymethyl) succinate]", "values": [{"measurement": "mean time for clearance of half the parasitaemia (PC50)", "setting": "human, in vivo", "value": 3.18, "unit": "h"}, {"measurement": "duration of the lag phase of the parasitaemia curve", "setting": "intravenous AS, previous clinical trials", "value": 1.92, "unit": "h"}, {"measurement": "lag time of the parasitaemia curve", "setting": "oral AS, previous clinical trials", "value": 2.81, "unit": "h"}]}]}
